Experimental data from patent publication US8466203B2, “Method of stabilizing human eye tissue by reaction with nitrite and related agents such as nitro compounds” (priority 2006, dated 2013).

What was measured:
[1] = system: porcine sclera; test: Thermal shrinkage temperature analysis of porcine scleral strips; conditions: for shift in Ts (in words): neutral pH, up to 100 mM
From the text: (§1) Thermal shrinkage temperature or denaturation temperature (Ts) is a technique that has been used for decades in studying collagen cross-linking. As collagen fibers are progressively heated, a threshold temperature is reached at which point disruption of hydrogen bonding in the collagen molecule triple helix occurs, resulting in unwinding of the triple helices. The denaturation of tertiary protein structure results in a rapid shrinkage of the tissue of up to 80%. This phenomenon can be expressed in various ways including temperature of onset of tissue shrinkage, temperature at maximal tissue shrinkage, and temperature at 50% of maximal tissue shrinkage, for example. In addition, differential scanning calorimetry (DSC) is related to thermal shrinkage temperature analysis and is widely used to evaluate biomaterial cross-linking. Thermal shrinkage temperature is essentially a simplified version of DSC and can be used effectively to screen the cross-linking efficacy of compounds. For the purposes of this study, the onset of shrinkage is considered the Ts and the temperature at which 50% of maximal shrinkage has occurred is T50. Graphs depicting the relationship between degree of shrinkage and temperature indicate differences in degree of cross-linking between groups. Thus, stabilization of collagen fiber structures through non-enzymatic cross-linking increases Ts and T50.
(§2) This system can perform multiple Ts assays in succession, allowing rapid screening of a number of potential cross-linking agents and conditions. […] Inlet and outlet fittings allow for constant circulation of heated water which is modulated by a digitally controlled water bath equipped with a water pump. The entire box is placed on a digital photo scanner connected to a Windows based computer. Beginning at 50° C. the temperature is raised at a rate of 1° C./min and serial scans are taken at every degree increase in temperature up to 80° C. […] As the tissue shrinks, the images are captured by the scanner. The image files are later analyzed for 2-dimensional area using NIH Image J software and % shrinkage calculations are made using Microsoft Excel for graphing purposes. This method obviates the need for removal of tissue pieces from the water bath with manual micrometer measurements as described by the UVR group (Spoerl, E., et al., 2004).
Using this simple, reproducible assay enables the screening of a number of compounds for cross-linking efficacy. This is first performed using porcine eyes because of their low cost. Follow up studies can be performed using human eyes. Porcine eyes are obtained within 6 hrs of sacrifice (Hatfield Meat Packing, Inc., Hatfield Pa.). Eyes showing clear corneas and intact epithelia are chosen for study. […] Each strip is then cross-linked using a nitro agent. […] Opthalmol. 1999; 117:166-169) for 24-96 hrs. Following incubation, the samples are evaluated for degree of cross-linking using the Ts assay as described above.
From the data, Ts curves are generated for each compound and condition studied. Each data point is the average of 3 independent samples.

[2] = system: porcine cornea; test: Yellowing of cross-linked porcine cornea
Experimental: (§3) These images were taken from tissues cross-linked with nitrite and the β-nitro alcohols 2-nitroethanol, 2-nitro-1-propanol, and […], for 48 hrs. […] Fresh porcine corneal strips and corneoscleral complexes were obtained within 6 hrs of sacrifice and incubated at 37° C. in buffered solutions (pH 7.4) containing 20% Dextran (T500) and either 100 mM NaNO2 or 100 mM of one each of the β-nitro alcohols. After 48 hrs, the following images were obtained. […] FIGS. 13 (B and D)
As such, the effects on corneal light transmission induced by cross-linking with β-nitro alcohols was evaluated using a method adopted from Dillon et al 2004.

[3] = system: porcine cornea; test: Thermal shrinkage temperature analysis of porcine corneal strips
From the text: as §1, §2
Using this simple, reproducible assay enables the screening of a number of compounds for cross-linking efficacy. This is first performed using porcine eyes because of their low cost. Follow up studies can be performed using human eyes. Porcine eyes are obtained within 6 hrs of sacrifice (Hatfield Meat Packing, Inc., Hatfield Pa.). Eyes showing clear corneas and intact epithelia are chosen for study. […] Each strip is then cross-linked using a nitro agent. The incubation solution is 20% Dextran (T500) [to prevent tissue swelling] in 0.2 M NaH2PO4/Na2HPO4 (pH 7.4) with various concentrations of nitro agent (i.e. 1, 10, and 100 mM). […] The samples are then placed in 2 mL microcentrifuge tubes with 1 mL of incubation solution and reacted in a 34° C. water bath (simulating corneal temperature—Girardin, F., et al., “Relationship between corneal temperature and finger temperature,” Arch. Opthalmol. 1999; 117:166-169) for 24-96 hrs. Following incubation, the samples are evaluated for degree of cross-linking using the Ts assay as described above.

[4] = system: human fibroblasts; conditions: Sung 1998; cited from earlier work
[5] = system: porcine cornea; test: Gross stiffness of porcine corneal strips handled with a forceps; conditions: 100 mM, pH 7.4, 37° C., 48 hrs
Experimental: Fresh porcine corneal strips and corneoscleral complexes obtained within 6 hrs of sacrifice and incubated at 37° C. in buffered solutions (pH 7.4) containing 20% Dextran (T500) and either 100 mM NaNO2 or 100 mM of one each of the specified β-nitro alcohols
as §3

[6] = system: primary bovine corneal endothelial cells; conditions: bovine, 48 h
[7] = 1 mM reagent, pH 7.4, 37° C., 96 hrs
[8] = 100 mM reagent, pH 7.4, 37° C., 96 hrs
[9] = 100 mM, 24 hrs reaction, pH 7.4
[10] = 10 mM reagent, pH 7.4, 37° C., 96 hrs

Row | Compound | T50 (temperature at 50% of maximal shrinkage) [1, 7] | T50 Δ (change in 50% shrinkage temperature compared to control) [1, 7] | T50 (temperature at 50% of maximal shrinkage) [1, 8] | T50 Δ (change in 50% shrinkage temperature compared to control) [1, 8] | shift in Ts (in words) [1] | T50 (temperature at 50% of maximal shrinkage) [1, 10] | T50 Δ (change in 50% shrinkage temperature compared to control) [1, 10] | Ti (temperature at 1% absolute shrinkage) [1, 10] | Ti (temperature at 1% absolute shrinkage) [1, 8] | also measured
1 | O=CCCCC=O [Glutaraldehyde, reference compound] | 68.9 °C | 3.6 °C |  |  |  |  |  |  |  | potency as a cross-linking agent relative to 2-nitroethanol ([1]; at moderate levels of T50 shift (~4° C.)): approximately 10 ×
2 | CCO [Ethanol, reference compound] |  |  | 65.2 °C | −0.1 °C |  |  |  |  |  | 
3 | NCCCN(CCCN)/[N+]([O-])=N/O [DPTA/NONO, dipropylenetriamine NONOate, reference compound] |  |  |  |  | Neither compound was able to shift Ts parameters |  |  |  |  | T50 ([1]; 10 mM, 24 hrs reaction, pH 7.4): 66.4 °C; T50 Δ ([1]; 10 mM, 24 hrs reaction, pH 7.4): 1.1 °C; T50 [1, 9]: 66.2 °C; T50 Δ [1, 9]: 0.9 °C
4 | O=[N+]([O-])c1ccccc1O [2-nitrophenol, reference compound] | 65.2 °C | −0.1 °C | 66.0 °C | 0.7 °C | very little shift in Ts | 65.6 °C | 0.3 °C | 62.3 °C | 62.9 °C | Ti (temperature at 1% absolute shrinkage) [1, 7]: 62.2 °C
5 | CC[N+](=O)[O-] [2-nitroethane, reference compound] |  |  | 65.3 °C | 0 °C | did not shift the Ts to any extent | 65.4 °C | 0.1 °C | 62.5 °C | 62.5 °C | 
6 | C[S+](C)[O-] [DMSO, reference compound] |  |  |  |  |  |  |  |  |  | T50 ([1]; 1% reagent, pH 7.4, 96 hrs): 65.0 °C; T50 Δ ([1]; 1% reagent, pH 7.4, 96 hrs): −0.3 °C
7 | CCCC(CO)[N+](=O)[O-] (stereo not drawn) [2-nitro-1-pentanol] |  |  |  |  |  |  |  |  |  | yellowing (tinting) [2]: without producing yellowing; shifts in Ts (in words) [3]: produce shifts in Ts
8 | C=O [Formaldehyde, reference compound] |  |  |  |  |  |  |  |  |  | T50 (temperature at 50% of maximal shrinkage) ([1]; pH 7.4): 67.7 °C; T50 Δ (change in 50% shrinkage temperature compared to control) ([1]; pH 7.4): 2.4 °C
9 | NCCN(CCN)/[N+]([O-])=N/O [DETA/NONO, diethylenetriaamine NONOate, reference compound] |  |  | 65.5 °C | 0.2 °C | Neither compound was able to shift Ts parameters |  |  |  |  | 
10 | COC(=O)C1=CO[C@@H](O)[C@@H]2C(CO)=CC[C@H]12 [genipin] |  |  |  |  |  |  |  |  |  | tolerable level relative to epoxy [4]: more than 20 ×; tolerable level relative to glutaraldehyde [4]: more than 100 ×
11 | NCCO [2-aminoethanol, reference compound] |  |  | 67.9 °C | 2.6 °C | only a marginal shift in Ts |  |  |  | 64.3 °C | 
12 | CCC(C(C)O)[N+](=O)[O-] (stereo not drawn) [3-nitro-2-pentanol] | 66.2 °C | 0.9 °C | 70.7 °C | 5.4 °C |  | 67.7 °C | 2.4 °C | 65.3 °C | 68.3 °C | Ti (temperature at 1% absolute shrinkage) [1, 7]: 62.5 °C; stiffness change when handled with a forceps [5]: dramatic stiffness change; highest tolerated level [6]: 2 mM
13 | CC(CO)[N+](=O)[O-] (stereo not drawn) [2-nitro-1-propanol] | 66.0 °C | 0.7 °C | 72.7 °C | 7.4 °C |  | 67.5 °C | 2.2 °C | 64.4 °C | 69.5 °C | Ti (temperature at 1% absolute shrinkage) [1, 7]: 63.0 °C; stiffness change when handled with a forceps [5]: intermediate effect; yellowing (tinting) [2]: without producing yellowing; highest tolerated level [6]: 0.75 mM; shifts in Ts (in words) [3]: produce shifts in Ts
